This assay deals with T1, SMYD3 (Homo sapiens, UniProt Q9H7B4).
T1 sequence (Q9H7B4 1-428): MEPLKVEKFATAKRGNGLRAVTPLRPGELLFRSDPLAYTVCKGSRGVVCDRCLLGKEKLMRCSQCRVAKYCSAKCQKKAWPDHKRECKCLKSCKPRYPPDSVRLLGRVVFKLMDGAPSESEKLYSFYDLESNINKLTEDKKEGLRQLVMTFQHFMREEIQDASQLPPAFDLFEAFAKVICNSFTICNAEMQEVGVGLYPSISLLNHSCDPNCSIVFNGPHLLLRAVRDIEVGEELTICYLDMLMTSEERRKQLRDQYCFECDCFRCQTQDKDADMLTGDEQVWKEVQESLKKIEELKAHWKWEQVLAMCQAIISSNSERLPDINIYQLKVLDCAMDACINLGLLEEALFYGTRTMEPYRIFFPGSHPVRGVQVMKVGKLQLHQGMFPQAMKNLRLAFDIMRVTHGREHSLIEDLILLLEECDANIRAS
The experiment in a line: SMYD3 biochemical assay (MTase-Glo, MAP3K2 peptide substrate). To be noted: Table 3; MTase assay, MAP3K2 peptide substrate; read-out: IC50. The essentials: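 Luminescent readout of SAH production (coupled SAH→ATP conversion, MTase-Glo) after SMYD3 reacted 30 min at room temperature with 1.0 µM SAM and 10 µM MAP3K2 peptide, both final. Non-linear regression gave IC50 values.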

pIC50: −log10 of the molar value.

The values that follow come from US20190071416A1, “COMPOUNDS FOR TREATMENT OF CANCER AND EPIGENETICS” (Agency For Science, Technology and Research, priority 2015, published 2019).

What is called pIC50 is the IC50 on a negative log10 scale, so that one unit is a factor of ten. On to `CCCOC(=O)N1CCN(C(=O)c2ccc3c(Cl)c4c(nc3c2)CC(c2ncccc2F)CC4)[C@H](C)C1` (stereo partly drawn) [A113, Propyl (3R)-4-(9-chloro-6-(3-fluoropyridin-2-yl)-5,6,7,8-tetrahydroacridine-3-carbonyl)-3-methylpiperazine-1-carboxylate], for which the pIC50 is 6.47. In the case of `CCCOC(=O)N1CCN(C(=O)c2ccc3c(Cl)c4c(nc3c2)CCCC4)CC1C` (centres unmarked) [A018, Propyl 4-(9-chloro-5,6,7,8-tetrahydroacridine-3-carbonyl)-2-methylpiperazine-1-carboxylate] it was 6.41. As for `CCCOC(=O)N1CCN(C(=O)c2ccc3c(Cl)cc(-c4ccc(O)c(F)c4)nc3c2)[C@@H](C)C1` [B162, Propyl (S)-4-(4-chloro-2-(3-fluoro-4-hydroxyphenyl)quinoline-7-carbonyl)-3-methylpiperazine-1-carboxylate], the pIC50 was 6.70. In the case of `CCCOC(=O)N1CCN(C(=O)c2ccc3c(Cl)cc(-c4ccc(OC)cc4)nc3c2)[C@@H](C)C1` [B047, Propyl (S)-4-(4-chloro-2-(4-methoxyphenyl)quinoline-7-carbonyl)-3-methylpiperazine-1-carboxylate] it was 6.64. With `CCCOC(=O)N1CCN(C(=O)c2ccc3c(Cl)cc(-c4cccc(CC)c4)nc3c2)CC1` [B067, Propyl 4-(4-chloro-2-(3-ethylphenyl)quinoline-7-carbonyl)piperazine-1-carboxylate] the figure was 5.68; with `CCCOC(=O)N1CCN(C(=O)c2ccc3c(Cl)cc(-c4ccc5[nH]ncc5c4)nc3c2)CC1` [B128, Propyl 4-(4-chloro-2-(1H-indazol-5-yl)quinoline-7-carbonyl)piperazine-1-carboxylate], 7.28.

Regarding `CCCOC(=O)N1CCN(C(=O)c2ccc3c(Cl)cc(-c4ccc(N(C)C)cc4)nc3c2)CC1` [B055, Propyl 4-(4-chloro-2-(4-(dimethylamino)phenyl)quinoline-7-carbonyl)piperazine-1-carboxylate], the pIC50 was 6.46.

As to `CCCOC(=O)N1CCN(C(=O)c2ccc3c(Cl)cc(-c4ccc(S(=O)(=O)NC)cc4)nc3c2)CC1` [B116, Propyl 4-(4-chloro-2-(4-(N-methylsulfamoyl)phenyl)quinoline-7-carbonyl)piperazine-1-carboxylate], the pIC50 is 6.37. In the case of `CCCOC(=O)N1CCN(C(=O)c2ccc3c(Cl)c(C)c(C)nc3c2)CC1` [C003, Propyl 4-(4-chloro-2,3-dimethylquinoline-7-carbonyl)piperazine-1-carboxylate], the pIC50 was 5.52. Take `CCCOC(=O)N1CCN(C(=O)c2ccc3c(Cl)ccnc3c2)CC1` [B051, Propyl 4-(4-chloroquinoline-7-carbonyl)piperazine-1-carboxylate]: the pIC50 is 5.49.

For `CCCOC(=O)N1CCN(C(=O)c2ccc3c(Cl)cc(-c4ccn(C(=O)OC)c4)nc3c2)CC1` [B228, Propyl 4-(4-chloro-2-(1-(methoxycarbonyl)-1H-pyrrol-3-yl)quinoline-7-carbonyl)piperazine-1-carboxylate], the pIC50 was 6.52. For the compound `CCCOC(=O)N1CCN(C(=O)c2ccc3c(Cl)c(C)c(-c4ccc(OC)cc4)nc3c2)CC1` [B031, Propyl 4-(4-chloro-2-(4-methoxyphenyl)-3-methylquinoline-7-carbonyl)piperazine-1-carboxylate], the pIC50 was 6.55. Regarding `CCCOC(=O)N1CCN(C(=O)c2ccc3c(Cl)cc(CC)nc3c2)CC1` [C004, Propyl 4-(4-chloro-2-ethylquinoline-7-carbonyl)piperazine-1-carboxylate], the negative-log IC50 (pIC50) was 5.85. For `CCCOC(=O)N1CCN(C(=O)c2ccc3c(Cl)cc(-c4ccc5[nH]cc(C)c5c4)nc3c2)CC1` [B211, Propyl 4-(4-chloro-2-(3-methyl-1H-indol-5-yl)quinoline-7-carbonyl)piperazine-1-carboxylate], the negative-log IC50 (pIC50) is 6.00. On to `CCCOC(=O)N1CCN(C(=O)c2ccc3c(Cl)cc(-c4ccc5[nH]c(C)nc5c4)nc3c2)CC1` [B222, Propyl 4-(4-chloro-2-(2-methyl-1H-benzo[d]imidazol-5-yl)quinoline-7-carbonyl)piperazine-1-carboxylate], for which the pIC50 is 7.34.

For the compound `CCCOC(=O)N1CCN(C(=O)c2ccc3c(Cl)c4c(nc3c2)CCC(CC(N)=O)C4)CC1` (centres unmarked) [A079, Propyl 4-(7-(2-amino-2-oxoethyl)-9-chloro-5,6,7,8-tetrahydroacridine-3-carbonyl)piperazine-1-carboxylate], the pIC50 was 6.37.

For `CCCOC(=O)N1CCN(C(=O)c2ccc3c(Cl)cc(C4CC4)nc3c2)CC1` [B125, Propyl 4-(4-chloro-2-cyclopropylquinoline-7-carbonyl)piperazine-1-carboxylate], the pIC50 was 6.25.

With `CCCOC(=O)N1CCN(C(=O)c2ccc3c(Cl)c4c(nc3c2)CCCC4)CC1C(=O)OC` (centres unmarked) [A042, 2-Methyl 1-propyl 4-(9-chloro-5,6,7,8-tetrahydroacridine-3-carbonyl)piperazine-1,2-dicarboxylate], the negative-log IC50 (pIC50) was 5.28. As for `CCCOC(=O)N1CCN(C(=O)c2ccc3c(Cl)c4c(nc3c2)CCCC4)CC1C(=O)NC` (centres unmarked) [A048, Propyl 4-(9-chloro-5,6,7,8-tetrahydroacridine-3-carbonyl)-2-(methylcarbamoyl)piperazine-1-carboxylate], the pIC50 is 5.21. Take `C[C@H]1CN(C(=O)OCCF)CCN1C(=O)c1ccc2c(Cl)cc(C3CC3)nc2c1` [B260, 2-Fluoroethyl (S)-4-(4-chloro-2-cyclopropylquinoline-7-carbonyl)-3-methylpiperazine-1-carboxylate]: the negative-log IC50 (pIC50) was 5.31.

With `CCCOC(=O)N1CCN(C(=O)c2ccc3c(Cl)c4c(nc3c2)CCCC4)CC1CCO` (centres unmarked) [A060, Propyl 4-(9-chloro-5,6,7,8-tetrahydroacridine-3-carbonyl)-2-(2-hydroxyethyl)piperazine-1-carboxylate], the pIC50 was 5.57. With `CCCOC(=O)N1CCN(C(=O)c2ccc3c(Cl)c4c(nc3c2)CC(CCN(C)C)CC4)C[C@@H]1C` (stereo partly drawn) [A136, Propyl (2S)-4-(9-chloro-6-(2-(dimethylamino)ethyl)-5,6,7,8-tetrahydroacridine-3-carbonyl)-2-methylpiperazine-1-carboxylate] the figure was 7.16. Turning to `CCCOC(=O)N1CCN(C(=O)c2ccc3c(Cl)cc(-c4cccc(CNC)c4)nc3c2)C[C@H]1C` [B124, Propyl (R)-4-(4-chloro-2-(3-((methylamino)methyl)phenyl)quinoline-7-carbonyl)-2-methylpiperazine-1-carboxylate], the negative-log IC50 (pIC50) is 7.22. For `CCCOC(=O)N1CCN(C(=O)c2ccc3c(Cl)c4c(nc3c2)CCC(CCN)C4)[C@@H](C)C1` (stereo partly drawn) [A081, Propyl (3S)-4-(7-(2-aminoethyl)-9-chloro-5,6,7,8-tetrahydroacridine-3-carbonyl)-3-methylpiperazine-1-carboxylate], the pIC50 is 6.82. As for `CCCOC(=O)N1CCN(C(=O)c2ccc3c(Cl)cc(-c4ccc(C(C)N5CCCC5)cc4)nc3c2)C[C@H]1C` (stereo partly drawn) [B283, Propyl (2R)-4-(4-chloro-2-(4-(1-(pyrrolidin-1-yl)ethyl)phenyl)quinoline-7-carbonyl)-2-methylpiperazine-1-carboxylate], the pIC50 was 6.55. Regarding `CCCOC(=O)N1CCN(C(=O)c2ccc3c(Cl)c4c(nc3c2)CCCC4)CC1CO` (centres unmarked) [A032, Propyl 4-(9-chloro-5,6,7,8-tetrahydroacridine-3-carbonyl)-2-(hydroxymethyl)piperazine-1-carboxylate], the pIC50 was 5.92.
